Measurements: patent US9096565B2, “Inhibitors of histone deacetylase” (MethylGene Inc., priority 2007, dated 2015)

Molecular target: one or more of HDAC-4, HDAC-5, HDAC-6, HDAC-7, HDAC-8, HDAC-9, HDAC-10 and HDAC-11
Experiment: Inhibition of histone deacetylase enzymatic activity (summary statement over isoforms)
Type: biochemical
Details: Table 3, selected examples; HDAC isoform not given
Procedure, shortened: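 HDAC enzyme mix with compound was preincubated 5 min at room temperature. Reaction was started at 37 °C with Boc-Lys(trifluoroacetyl)-AMC substrate and run 20-30 min. It was stopped with trypsin (1 mg/mL) plus a known HDAC inhibitor to release the fluorogenic AMC.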

IC50 [nM] | Compound
< 1000 | COc1ncc(-c2ccc(C(C(=O)NO)c3ccccc3)cc2)cn1 (centres unmarked) [Compound 5-92, N-hydroxy-2-(4-(2-methoxypyrimidin-5-yl)phenyl)-2-phenylacetamide]
< 1000 | CC(C)N1CCN(c2ccc(C(C(=O)NO)c3ccccc3)cc2)CC1 (centres unmarked) [Compound 5-93, N-hydroxy-2-(4-(4-isopropylpiperazin-1-yl)phenyl)-2-phenylacetamide]
< 1000 | CN(C)CCN1CCN(c2ccc(C(C(=O)NO)c3ccccc3)cc2)CC1 (centres unmarked) [Compound 5-94, 2-(4-(4-(2-(dimethylamino)ethyl)piperazin-1-yl)phenyl)-N-hydroxy-2-phenylacetamide]
< 1000 | O=C(NO)C(c1ccccc1)c1ccc(CCCN2CCS(=O)(=O)CC2)cc1 (centres unmarked) [Compound 5-95]
< 1000 | O=C(NO)C(c1ccccc1)c1ccc(OCCN2CCCC2)cc1 (centres unmarked) [Compound 5-96, N-hydroxy-2-phenyl-2-(4-(2-(pyrrolidin-1-yl)ethoxy)phenyl)acetamide]
< 1000 | O=C(NO)C(c1ccccc1)c1ccc(N2CCN(S(=O)(=O)c3ccccc3)CC2)cc1 (centres unmarked) [Compound 5-97, N-hydroxy-2-phenyl-2-(4-(4-(phenylsulfonyl)piperazin-1-yl)phenyl)acetamide]
1000 to 15000 | O=CN(O)C(c1ccccc1)c1ccc(OCc2ccccc2)cc1 (centres unmarked) [Compound 5-98, N-((4-(benzyloxy)phenyl)(phenyl)methyl)-N-hydroxyformamide]
< 1000 | CN1CCC(Oc2ccc(C(C(=O)NO)c3ccccc3)cc2)CC1 (centres unmarked) [Compound 5-99, N-hydroxy-2-(4-(1-methylpiperidin-4-yloxy)phenyl)-2-phenylacetamide]
< 1000 | COCCN1CCN(c2ccc(C(C(=O)NO)c3ccccc3)cc2)CC1 (centres unmarked) [Compound 5-100, N-hydroxy-2-(4-(4-(2-methoxyethyl)piperazin-1-yl)phenyl)-2-phenylacetamide]
< 1000 | CCN(CC)CC#Cc1ccc(C(C(=O)NO)c2ccccc2)cc1 (centres unmarked) [Compound 5-101, 2-(4-(3-(diethylamino)prop-1-ynyl)phenyl)-N-hydroxy-2-phenylacetamide]
< 1000 | CCCc1ccc(C(C(=O)NO)c2ccccc2)cc1 (centres unmarked) [Compound 5-102, N-hydroxy-2-phenyl-2-(4-propylphenyl)acetamide]
1000 to 15000 | O=C(NO)C(c1ccccc1)N1CCN(c2ccccc2O)CC1 (centres unmarked) [Compound 5-103, N-hydroxy-2-(4-(2-hydroxyphenyl)piperazin-1-yl)-2-phenylacetamide]
< 1000 | O=C(NO)C(c1ccc(N2CCOCC2)cc1)c1cccs1 (centres unmarked) [Compound 5-104, N-hydroxy-2-(4-morpholinophenyl)-2-(thiophen-2-yl)acetamide]
< 1000 | O=C(NO)C(c1ccccc1)c1ccc(N2CCN(CC3CC3)CC2)cc1 (centres unmarked) [Compound 5-105, 2-(4-(4-(cyclopropylmethyl)piperazin-1-yl)phenyl)-N-hydroxy-2-phenylacetamide]
< 1000 | O=C(NO)C(c1ccccc1)c1ccc(N2CCCC2=O)cc1 (centres unmarked) [Compound 5-106, N-hydroxy-2-(4-(2-oxopyrrolidin-1-yl)phenyl)-2-phenylacetamide]
< 1000 | O=C(NO)C(c1ccccc1)c1ccc(N2Cc3ccccc3C2)cc1 (centres unmarked) [Compound 5-107, N-hydroxy-2-(4-(isoindolin-2-yl)phenyl)-2-phenylacetamide]
< 1000 | Nc1ccccc1NC(=O)c1ccc(C(C(=O)NO)c2ccccc2)cc1 (centres unmarked) [Compound 5-108, N-(2-aminophenyl)-4-(2-(hydroxyamino)-2-oxo-1-phenylethyl)benzamide]
< 1000 | COc1ccccc1COc1ccc(C(C(=O)NO)c2ccccc2)cc1 (centres unmarked) [Compound 5-109, N-hydroxy-2-(4-(2-methoxybenzyloxy)phenyl)-2-phenylacetamide]
< 1000 | O=C(NO)C(c1ccccc1)c1ccc(N2CCCCC2=O)cc1 (centres unmarked) [Compound 5-110, N-hydroxy-2-(4-(2-oxopiperidin-1-yl)phenyl)-2-phenylacetamide]
< 1000 | O=C(NO)C(c1ccccc1)c1ccc(Oc2ccccc2)cc1 (centres unmarked) [Compound 5-111, N-hydroxy-2-(4-phenoxyphenyl)-2-phenylacetamide]
